Experimental data as given in ChEMBL document CHEMBL1201862, “PubChem BioAssay data set” (2004).
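Grown in 96-well plates, cells were treated for 48 hours with each compound at five concentrations. Insufficient inhibition: endpoint recorded as highest concentration tested. GI50 is the concentration that inhibits growth by half.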 The source made the active and inactive calls. Rule as the data show it: active = GI50 up to about 1.1 µM and inactive = higher.

Columns and labels:
Experiment in all cases: NCI tumour cell line growth inhibition, 48 h
NCI-H522 = system: NCI-H522
NCI-H460 = system: NCI-H460
IGROV-1 = system: IGROV-1
MCF7 = system: MCF7
OVCAR-8 = system: OVCAR-8
CCRF-CEM = system: CCRF-CEM
U-251 = system: U-251
Hs-578T = system: Hs-578T
HT-29 = system: HT-29
CAKI-1 = system: CAKI-1
EKVX = system: EKVX
COLO 205 = system: COLO 205
OVCAR-4 = system: OVCAR-4
HOP-62 = system: HOP-62
KM12 = system: KM12
UO-31 = system: UO-31
OVCAR-3 = system: OVCAR-3
RXF 393 = system: RXF 393

SMILES	GI50 (NCI-H522)	GI50 (NCI-H460)	GI50 (IGROV-1)	GI50 (MCF7)	GI50 (OVCAR-8)	GI50 (CCRF-CEM)	GI50 (U-251)	GI50 (Hs-578T)	GI50 (HT-29)	GI50 (CAKI-1)	GI50 (EKVX)	GI50 (COLO 205)	GI50 (OVCAR-4)	GI50 (HOP-62)	GI50 (KM12)	GI50 (UO-31)	GI50 (OVCAR-3)	GI50 (RXF 393)
Cn1c2ccccc2n2c(=O)c(-c3ccc(O)cc3)nnc12	96.8 µM (inactive)	87.3 µM (inactive)	> 100 µM (inactive)	> 100 µM (inactive)	> 100 µM (inactive)	> 100 µM (inactive)	28.2 µM (inactive)	34.8 µM (inactive)	> 100 µM (inactive)	27.7 µM (inactive)	21.2 µM (inactive)	> 100 µM (inactive)	> 100 µM (inactive)	42.4 µM (inactive)	> 100 µM (inactive)	> 100 µM (inactive)	–	–
CC1CCCCNC1=S (configuration not stated)	–	> 10 µM (inactive)	> 10 µM (inactive)	> 10 µM (inactive)	> 10 µM (inactive)	> 10 µM (inactive)	> 10 µM (inactive)	> 10 µM (inactive)	> 10 µM (inactive)	–	> 10 µM (inactive)	–	–	> 10 µM (inactive)	> 10 µM (inactive)	> 10 µM (inactive)	> 10 µM (inactive)	> 10 µM (inactive)
CCOC(=O)O/C(=C\c1ccc(OC)cc1)c1c(OC(=O)OCC)n(C(=O)OCC)c2ccccc12	–	15.1 µM (inactive)	35.7 µM (inactive)	25.1 µM (inactive)	59.2 µM (inactive)	21.8 µM (inactive)	24.7 µM (inactive)	22.3 µM (inactive)	47.3 µM (inactive)	57.9 µM (inactive)	88.9 µM (inactive)	> 100 µM (inactive)	32.4 µM (inactive)	19.9 µM (inactive)	7.83 µM (inactive)	29.1 µM (inactive)	59.4 µM (inactive)	19.8 µM (inactive)
O=C1/C(=C/c2cccc([N+](=O)[O-])c2)N=C(c2ccccc2)N1c1nc2ccc(Sc3ccccc3)cc2[nH]1	32.9 µM (inactive)	25 µM (inactive)	37.8 µM (inactive)	31.5 µM (inactive)	45.1 µM (inactive)	–	37.3 µM (inactive)	35.5 µM (inactive)	45.2 µM (inactive)	65.5 µM (inactive)	62.8 µM (inactive)	31.8 µM (inactive)	49.3 µM (inactive)	83 µM (inactive)	31.8 µM (inactive)	3.45 µM (inactive)	–	74.3 µM (inactive)
NC(CCCCNC(=O)C(Cc1ccccc1)NC(=O)OCc1ccccc1)C(=O)NC(CCCCNC(=O)C(Cc1ccccc1)NC(=O)OCc1ccccc1)C(=O)NC(CCCCNC(=O)C(Cc1ccccc1)NC(=O)OCc1ccccc1)C(=O)NC(CCCCNC(=O)C(Cc1ccccc1)NC(=O)OCc1ccccc1)C(=O)NC(CCCCNC(=O)C(Cc1ccccc1)NC(=O)OCc1ccccc1)C(=O)NC(CCCCNC(=O)C(Cc1ccccc1)NC(=O)OCc1ccccc1)C(=O)O (configuration not stated)	> 100 µM (inactive)	> 100 µM (inactive)	> 100 µM (inactive)	> 100 µM (inactive)	> 100 µM (inactive)	> 100 µM (inactive)	> 100 µM (inactive)	–	> 100 µM (inactive)	> 100 µM (inactive)	–	–	> 100 µM (inactive)	> 100 µM (inactive)	–	> 100 µM (inactive)	> 100 µM (inactive)	–
Cc1nc2nnc(CCCCCCCCc3nnc4nc(C)[nH]n34)n2[nH]1	60.5 µM (inactive)	> 100 µM (inactive)	> 100 µM (inactive)	> 100 µM (inactive)	> 100 µM (inactive)	> 100 µM (inactive)	> 100 µM (inactive)	–	> 100 µM (inactive)	> 100 µM (inactive)	> 100 µM (inactive)	> 100 µM (inactive)	> 100 µM (inactive)	> 100 µM (inactive)	66.1 µM (inactive)	> 100 µM (inactive)	> 100 µM (inactive)	> 100 µM (inactive)
Oc1ccccc1/C=N/c1ccc(-c2nc3ccccc3s2)cc1	17.3 µM (inactive)	25 µM (inactive)	28.2 µM (inactive)	–	28.6 µM (inactive)	6.89 µM (inactive)	30.9 µM (inactive)	30.7 µM (inactive)	30.8 µM (inactive)	28.2 µM (inactive)	21.3 µM (inactive)	19.6 µM (inactive)	30.2 µM (inactive)	19.1 µM (inactive)	22 µM (inactive)	28.5 µM (inactive)	20.6 µM (inactive)	28.5 µM (inactive)
C=C1CC2CCCC12C=O (configuration not stated)	> 10 µM (inactive)	–	> 10 µM (inactive)	> 10 µM (inactive)	> 10 µM (inactive)	> 10 µM (inactive)	> 10 µM (inactive)	> 10 µM (inactive)	> 10 µM (inactive)	> 10 µM (inactive)	–	> 10 µM (inactive)	> 10 µM (inactive)	> 10 µM (inactive)	> 10 µM (inactive)	–	> 10 µM (inactive)	–
COC(OC)(c1ccccc1)C(Br)Br	17.8 µM (inactive)	> 100 µM (inactive)	50.8 µM (inactive)	39 µM (inactive)	> 100 µM (inactive)	13.6 µM (inactive)	> 100 µM (inactive)	78 µM (inactive)	57.4 µM (inactive)	24.6 µM (inactive)	> 100 µM (inactive)	17.3 µM (inactive)	–	> 100 µM (inactive)	> 100 µM (inactive)	> 100 µM (inactive)	48.3 µM (inactive)	–
COc1ccc2c(c1)C(=O)CC1c3cnccc3C(=O)N21 (configuration not stated)	> 100 µM (inactive)	> 67.9 µM (inactive)	> 85.1 µM (inactive)	> 100 µM (inactive)	> 100 µM (inactive)	–	> 73.5 µM (inactive)	–	> 100 µM (inactive)	> 100 µM (inactive)	> 79.4 µM (inactive)	> 100 µM (inactive)	> 100 µM (inactive)	> 27.8 µM (inactive)	> 100 µM (inactive)	49.1 µM (inactive)	> 100 µM (inactive)	> 75.9 µM (inactive)
c1csc(-c2ccsc2-c2ccsc2)c1	–	97.9 µM (inactive)	> 100 µM (inactive)	> 100 µM (inactive)	91.2 µM (inactive)	45.2 µM (inactive)	> 100 µM (inactive)	90.2 µM (inactive)	> 100 µM (inactive)	> 100 µM (inactive)	53.8 µM (inactive)	73.8 µM (inactive)	84.1 µM (inactive)	> 100 µM (inactive)	48.4 µM (inactive)	80 µM (inactive)	16.8 µM (inactive)	25.6 µM (inactive)
NCCC1([N+](=O)[O-])C=CN=CC1 (configuration not stated)	> 100 µM (inactive)	> 100 µM (inactive)	> 100 µM (inactive)	–	> 100 µM (inactive)	> 100 µM (inactive)	> 100 µM (inactive)	> 100 µM (inactive)	> 100 µM (inactive)	> 100 µM (inactive)	> 100 µM (inactive)	> 100 µM (inactive)	> 100 µM (inactive)	–	> 100 µM (inactive)	> 100 µM (inactive)	–	> 100 µM (inactive)
Cc1ccc(S(=O)(=O)NC(C(=O)O)C(C)C)cc1 (configuration not stated)	> 100 µM (inactive)	> 100 µM (inactive)	> 100 µM (inactive)	–	> 100 µM (inactive)	> 100 µM (inactive)	> 100 µM (inactive)	> 100 µM (inactive)	> 100 µM (inactive)	> 100 µM (inactive)	> 100 µM (inactive)	–	> 100 µM (inactive)	> 100 µM (inactive)	> 100 µM (inactive)	> 100 µM (inactive)	> 100 µM (inactive)	> 100 µM (inactive)
Cc1cccc(-c2cc(=S)c3cc(N4CCCC4)ccc3[nH]2)c1	–	–	–	> 100 µM (inactive)	–	> 100 µM (inactive)	> 100 µM (inactive)	> 100 µM (inactive)	–	> 100 µM (inactive)	> 100 µM (inactive)	> 100 µM (inactive)	> 100 µM (inactive)	> 100 µM (inactive)	> 100 µM (inactive)	> 100 µM (inactive)	> 100 µM (inactive)	> 100 µM (inactive)
C#CCNC(CS)C(=O)O (configuration not stated)	> 100 µM (inactive)	> 100 µM (inactive)	> 100 µM (inactive)	–	> 100 µM (inactive)	> 100 µM (inactive)	> 100 µM (inactive)	> 100 µM (inactive)	> 100 µM (inactive)	> 100 µM (inactive)	> 100 µM (inactive)	> 100 µM (inactive)	> 100 µM (inactive)	> 100 µM (inactive)	> 100 µM (inactive)	> 100 µM (inactive)	> 100 µM (inactive)	> 100 µM (inactive)
CCC(C)[C@@H](NC1=C(Cl)C(=O)c2c(O)ccc(O)c2C1=O)C(=O)OC (some centres not stated)	2.67 µM (inactive)	2.64 µM (inactive)	3.95 µM (inactive)	3.61 µM (inactive)	3.15 µM (inactive)	0.579 µM (active)	3.78 µM (inactive)	> 10 µM (inactive)	3.01 µM (inactive)	6.46 µM (inactive)	9.23 µM (inactive)	2.13 µM (inactive)	2.84 µM (inactive)	3.51 µM (inactive)	3.92 µM (inactive)	–	2.79 µM (inactive)	–
C=C1CC(Cn2cc(C)c(=O)[nH]c2=O)(c2ccc(-c3ccccc3)cc2)OC1=O (configuration not stated)	0.841 µM (active)	6.95 µM (inactive)	1.82 µM (inactive)	1.51 µM (inactive)	1.95 µM (inactive)	0.379 µM (active)	10.6 µM (inactive)	6.55 µM (inactive)	0.875 µM (active)	1.55 µM (inactive)	6.62 µM (inactive)	0.984 µM (active)	2.49 µM (inactive)	13.1 µM (inactive)	2.31 µM (inactive)	5.32 µM (inactive)	1.21 µM (inactive)	–
